# Tested on: C. albicans strain SC5314
# Experiment: Test Example 5: suppression effect of antifungal drugs on biofilm formation on polyurethane fibers in silkworms, drug given 12 hours after inoculation
# Assay type: in vivo, Candida albicans (in silkworm)
# Settings: antifungal drug administered 12 hours after inoculation of C. albicans; fibers extracted 24 hours after inoculation; compared with physiological saline
# Experimental: Biofilms formed on the surface of the polyurethane fibers after the culture were stained with crystal violet, and the biofilms were quantified. The biofilms were stained as follows. Each of the polyurethane fibers were moved to a 1.5-ml tube and washed with 1 ml of distilled water twice. Then, 500 μl of an aqueous 0.1% crystal violet solution was added, and the polyurethane fiber was placed at room temperature for 20 to 60 minutes. The stain solution was discarded, and the polyurethane fiber were washed with 1 ml of distilled water 3 times. The polyurethane fibers were washed with 1 ml of ethanol twice and then air-dried. The polyurethane fibers were observed under a microscope (×10, CH30, Olympus Corporation), and photographs were taken. Then, 500 μl of 33% acetic acid solution was added, and the polyurethane fibers were left to stand at room temperature for 2 hours or more. The absorbance (OD590) of the sample to which 500 μl of distilled water was added to adjust the total volume to 1 ml was measured.
# Next, it was examined whether biofilms by C. albicans were formed on the surface of the polyurethane fibers in the bodies of silkworms. Silkworms in which the polyurethane fibers were inserted were inoculated with 50 μl of physiological saline solution (saline) or 50 μl of a suspension of C. albicans strain SC5314 (7×10^7 cells/ml) and bred at 27° C. for 24 hours. […]
smiles,measurement,value
C[C@@H]1[C@H](O)[C@@H](C)/C=C/C=C/C=C/C=C/C=C/C=C/C=C/[C@H](O[C@@H]2O[C@H](C)[C@@H](O)[C@H](N)[C@@H]2O)C[C@@H]2O[C@](O)(C[C@@H](O)C[C@@H](O)[C@H](O)CC[C@@H](O)C[C@@H](O)CC(=O)O[C@H]1C)C[C@H](O)[C@H]2C(=O)O [amphotericin B],"biofilm formation on the polyurethane fiber in the bodies of the silkworms (crystal violet, absorbance 590 nm)",significantly suppressed
